Data set [1] has as its target T1, ATPase family AAA domain-containing protein 2B (Homo sapiens, UniProt Q9ULI0).
T1 sequence (Q9ULI0 whole entry): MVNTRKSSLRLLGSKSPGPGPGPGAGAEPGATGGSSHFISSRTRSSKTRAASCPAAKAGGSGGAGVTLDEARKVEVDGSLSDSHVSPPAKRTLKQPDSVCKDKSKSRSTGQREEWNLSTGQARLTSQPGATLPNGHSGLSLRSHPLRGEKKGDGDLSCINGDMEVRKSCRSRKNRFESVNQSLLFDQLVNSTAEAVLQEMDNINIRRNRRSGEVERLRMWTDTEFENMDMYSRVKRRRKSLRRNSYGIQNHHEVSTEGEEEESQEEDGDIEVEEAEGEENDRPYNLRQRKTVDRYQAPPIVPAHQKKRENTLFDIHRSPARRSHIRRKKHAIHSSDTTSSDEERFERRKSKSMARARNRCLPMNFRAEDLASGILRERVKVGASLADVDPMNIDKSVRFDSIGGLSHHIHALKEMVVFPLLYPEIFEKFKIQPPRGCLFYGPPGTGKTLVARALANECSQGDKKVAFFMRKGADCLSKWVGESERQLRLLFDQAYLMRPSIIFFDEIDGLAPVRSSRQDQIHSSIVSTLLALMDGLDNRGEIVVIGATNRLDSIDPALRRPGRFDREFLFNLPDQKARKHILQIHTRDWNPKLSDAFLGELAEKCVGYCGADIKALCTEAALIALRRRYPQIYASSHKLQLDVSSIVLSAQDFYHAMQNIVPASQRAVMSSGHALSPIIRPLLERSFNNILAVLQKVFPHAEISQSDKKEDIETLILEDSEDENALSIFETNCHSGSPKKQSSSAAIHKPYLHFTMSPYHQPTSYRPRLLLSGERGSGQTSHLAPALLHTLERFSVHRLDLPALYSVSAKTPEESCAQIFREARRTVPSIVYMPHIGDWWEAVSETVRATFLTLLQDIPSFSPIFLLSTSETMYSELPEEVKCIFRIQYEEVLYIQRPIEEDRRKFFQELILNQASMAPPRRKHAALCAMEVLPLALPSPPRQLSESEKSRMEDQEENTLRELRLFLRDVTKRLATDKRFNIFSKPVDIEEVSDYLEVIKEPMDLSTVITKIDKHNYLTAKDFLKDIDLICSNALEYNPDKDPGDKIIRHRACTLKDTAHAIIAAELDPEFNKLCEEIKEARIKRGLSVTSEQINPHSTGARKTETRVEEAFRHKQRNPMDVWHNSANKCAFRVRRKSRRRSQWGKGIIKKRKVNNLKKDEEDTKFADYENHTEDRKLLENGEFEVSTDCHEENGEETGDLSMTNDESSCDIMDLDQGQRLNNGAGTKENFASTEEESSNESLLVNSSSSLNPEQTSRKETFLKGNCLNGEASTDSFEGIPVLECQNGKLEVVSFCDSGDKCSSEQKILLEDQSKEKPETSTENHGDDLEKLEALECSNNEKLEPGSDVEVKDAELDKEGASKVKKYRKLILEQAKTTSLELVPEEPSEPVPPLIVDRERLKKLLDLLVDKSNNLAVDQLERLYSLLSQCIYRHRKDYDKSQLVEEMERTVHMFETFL
As to the kind of experiment: Inhibition of human ATAD2B (955 to 1082 residues) expressed in Escherichia coli BL21 after 1 hr by BROMOscan assay.

Data set [2] has as its target Bromodomain-containing protein 4 (Homo sapiens, UniProt O60885). The data set is described as follows: Inhibition of human BRD4 bromodomain 1 (unknown origin) using [H-YSGRGKacGGKacGLGKacGGAKacRHRK(Biotin)-OH peptide as substrate after 30 mins by alphaScreen assay.
A short description of data set [3]: Aqueous solubility of compound. The data set is classed as physicochemical. The settings on record: buffer.
For a further data set, the system named is NCI-H1703. As to the kind of experiment: Inhibition of cell proliferation of human NCI-H1703 cells after 72 hrs by MTS assay. Type of data set: functional. The settings on record: NCI-H1703, 72 h. On the technique in general: Formazan colour is commonly taken as a measure of viable cells.
Data set [4] has as its target T2, Bromodomain-containing protein 9 (Homo sapiens, UniProt Q9H8M2).
T2 sequence (Q9H8M2 whole entry): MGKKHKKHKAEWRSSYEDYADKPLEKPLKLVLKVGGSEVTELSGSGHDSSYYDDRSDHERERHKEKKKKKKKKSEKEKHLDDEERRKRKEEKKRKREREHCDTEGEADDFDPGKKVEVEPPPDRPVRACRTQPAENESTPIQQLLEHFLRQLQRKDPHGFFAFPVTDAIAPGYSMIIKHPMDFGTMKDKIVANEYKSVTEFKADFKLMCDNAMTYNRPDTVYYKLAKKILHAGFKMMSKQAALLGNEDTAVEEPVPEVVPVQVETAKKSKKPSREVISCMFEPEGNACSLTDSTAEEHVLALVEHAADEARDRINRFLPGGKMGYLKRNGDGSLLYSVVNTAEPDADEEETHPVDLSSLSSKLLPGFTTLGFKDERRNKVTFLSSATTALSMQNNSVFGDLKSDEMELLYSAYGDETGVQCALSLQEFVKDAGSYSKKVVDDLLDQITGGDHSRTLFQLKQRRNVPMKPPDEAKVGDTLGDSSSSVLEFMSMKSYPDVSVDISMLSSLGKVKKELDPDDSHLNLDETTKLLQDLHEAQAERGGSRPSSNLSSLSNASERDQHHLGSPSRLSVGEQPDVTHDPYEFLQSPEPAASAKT
The data set is described as follows: Binding affinity to BRD9 (unknown origin) by isothermal titration calorimetry. (In general: In ITC the heat of successive injections is recorded.)

A further data set concerns the target KCNQ1/minK (Homo sapiens, UniProt P51787+Q8N4C8). As to the kind of experiment: Inhibition of KCNQ1/minK (unknown origin) at 30 uM. Type of data set: protein-complex assay.

One compound from ChEMBL document CHEMBL4028852, “Design of a Chemical Probe for the Bromodomain and Plant Homeodomain Finger-Containing (BRPF) Family of Proteins” (J Med Chem, 2017) can be followed below.

pIC50, pKd: −log10 of the molar value. In brackets after ≈: the same amount, converted by molar mass.

One may read the pIC50 as the IC50 on a negative log10 scale, so that one unit is a factor of ten. Low values mean a high IC50, high ones a low IC50. The term solubility denotes the dissolved amount per volume that the medium holds. For orientation: GI50 means the concentration giving 50% growth inhibition. Higher therefore signals less potent growth inhibition. What is called pKd is the Kd on a negative log10 scale, so that one unit is a factor of ten. For orientation: inhibition means the percentage by which the read-out fell short of the control.

Chain of KCNQ1/minK (P51787 whole entry): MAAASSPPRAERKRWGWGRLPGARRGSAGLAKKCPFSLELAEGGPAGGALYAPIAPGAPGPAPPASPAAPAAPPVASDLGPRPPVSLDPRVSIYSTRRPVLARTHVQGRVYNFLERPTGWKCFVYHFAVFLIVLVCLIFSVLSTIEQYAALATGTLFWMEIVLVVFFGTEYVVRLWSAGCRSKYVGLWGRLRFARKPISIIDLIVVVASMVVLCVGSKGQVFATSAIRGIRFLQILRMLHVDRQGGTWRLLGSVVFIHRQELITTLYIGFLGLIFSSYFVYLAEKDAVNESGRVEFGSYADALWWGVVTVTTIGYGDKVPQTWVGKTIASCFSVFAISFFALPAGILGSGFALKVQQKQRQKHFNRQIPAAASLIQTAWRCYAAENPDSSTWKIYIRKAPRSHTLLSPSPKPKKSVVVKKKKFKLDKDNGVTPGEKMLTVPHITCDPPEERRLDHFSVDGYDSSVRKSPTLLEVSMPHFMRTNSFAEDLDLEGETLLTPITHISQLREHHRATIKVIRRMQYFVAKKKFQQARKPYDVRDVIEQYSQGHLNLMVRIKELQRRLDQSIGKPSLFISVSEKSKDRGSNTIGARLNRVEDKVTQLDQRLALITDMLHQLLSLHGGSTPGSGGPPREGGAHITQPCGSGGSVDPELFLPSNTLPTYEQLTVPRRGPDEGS
Chain of KCNQ1/minK (Q8N4C8 whole entry): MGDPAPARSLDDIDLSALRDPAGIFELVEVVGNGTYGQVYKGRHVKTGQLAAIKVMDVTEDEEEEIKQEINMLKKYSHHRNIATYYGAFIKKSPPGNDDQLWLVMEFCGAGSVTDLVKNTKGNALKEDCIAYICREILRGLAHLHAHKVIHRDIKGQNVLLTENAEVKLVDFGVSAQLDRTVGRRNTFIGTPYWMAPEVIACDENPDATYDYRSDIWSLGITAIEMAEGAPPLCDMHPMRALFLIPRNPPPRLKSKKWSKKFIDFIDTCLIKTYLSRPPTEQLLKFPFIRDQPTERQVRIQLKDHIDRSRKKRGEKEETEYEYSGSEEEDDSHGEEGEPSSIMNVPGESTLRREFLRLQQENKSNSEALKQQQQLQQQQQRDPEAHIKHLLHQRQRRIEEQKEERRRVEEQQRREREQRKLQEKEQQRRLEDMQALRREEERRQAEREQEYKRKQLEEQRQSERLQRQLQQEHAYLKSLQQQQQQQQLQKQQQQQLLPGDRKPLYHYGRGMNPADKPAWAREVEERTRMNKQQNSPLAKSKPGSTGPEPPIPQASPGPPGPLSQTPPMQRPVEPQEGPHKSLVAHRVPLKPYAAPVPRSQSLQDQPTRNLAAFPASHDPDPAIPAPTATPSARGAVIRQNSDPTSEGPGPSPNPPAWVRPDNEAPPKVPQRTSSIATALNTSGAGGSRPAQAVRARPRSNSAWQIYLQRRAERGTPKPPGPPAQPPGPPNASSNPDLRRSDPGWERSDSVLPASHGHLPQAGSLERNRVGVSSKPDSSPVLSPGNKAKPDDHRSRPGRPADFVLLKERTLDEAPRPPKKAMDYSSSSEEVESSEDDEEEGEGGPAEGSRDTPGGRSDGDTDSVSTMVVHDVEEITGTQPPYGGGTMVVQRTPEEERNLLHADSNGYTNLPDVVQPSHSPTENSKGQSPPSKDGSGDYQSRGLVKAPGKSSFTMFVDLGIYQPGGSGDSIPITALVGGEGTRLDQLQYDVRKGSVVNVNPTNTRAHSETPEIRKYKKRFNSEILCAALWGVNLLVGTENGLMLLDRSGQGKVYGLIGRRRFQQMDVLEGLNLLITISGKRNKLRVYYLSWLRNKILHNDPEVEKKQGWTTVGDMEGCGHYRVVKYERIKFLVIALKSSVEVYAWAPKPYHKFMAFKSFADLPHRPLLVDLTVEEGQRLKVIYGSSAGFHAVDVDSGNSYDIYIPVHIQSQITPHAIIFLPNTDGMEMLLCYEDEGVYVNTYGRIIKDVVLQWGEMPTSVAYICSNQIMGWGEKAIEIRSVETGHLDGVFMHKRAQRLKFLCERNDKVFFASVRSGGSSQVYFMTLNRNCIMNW

Take `COc1cc(C#N)ccc1S(=O)(=O)Nc1ccc2c(c1)cc(C)c(=O)n2C`: the pIC50 in data set [1] was less than 4.00; in data set [2] it was less than 5.00. In addition, in data set [3], the concentration in solution (solubility) was 100 µM (≈ 38.3 µg/mL). Moreover, in the data set on NCI-H1703, it took 10.4 µM to inhibit growth by half (GI50). Also, the pKd in data set [4] was 6.00. Besides, the inhibition at 30 µM on KCNQ1/minK is less than 40%.
